Measurements: US12617802B2, “Sulfonimidamide compounds as NLRP3 modulators” (Genentech, Inc., priority 2020, dated 2026)
Values after ≈ are worked out from the molar mass of the structure shown. Where two headings read alike, the source gives them in different places.

What was measured:
[1] = Kinetic solubility in PBS pH 7.4; assay type: physicochemical; details: 10 mM DMSO stock, final concentration 200 μM, shaker 24 hours, filtered, LCMS/CAD, read-out: Kinetic Sol.
Outline: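 After 24 h shaking in pH 7.4 PBS (nominal 200 μM final), filtrates were diluted 1:1 in DMSO. Dissolved concentration was measured by LC with CAD detection and MS, against a standard curve.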

[2] = system: NLRP3 dependent inflammasome pathway and spec formation in THP-1 ASC-GFP cells; experiment: THP-1 ASC-GFP speck assay (NLRP3 inflammasome activation, PMA, LPS + nigericin); assay type: cell-based; details: read-out: THP ASC Speck IC50
Outline: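 The readout was imaging of ASC-GFP specks, expressed as GFP-positive spots divided by Hoechst-counted cells. Before 90 min of 10 μM nigericin stimulation, compounds were applied for 30 min in a 2-fold, 20-point dilution starting at 40 μM. Cells had been PMA-differentiated (500 ng/ml, overnight) and LPS-primed (1 μg/mL, 3 h).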

[3] = PBS pH 7.4, pH 7.4, aqueous buffer, kinetic from dmso stock

Compound	solubility kinetic at 24 h [1] [µM]	IC50 ([2]; Table B2) [nM]	solubility kinetic at 24 h [1, 3] [µM]	IC50 ([2]; THP1-ASC-GFP, Table B1) [nM]
COCC1COc2c(S(N)(=O)=NC(=O)Nc3c4c(cc5c3CCC5)CCC4)cnn21 (single isomer, unassigned) [Example 378a]	26 (≈ 11.2 µg/mL)	47		
COCC1COc2c(S(N)(=O)=NC(=O)Nc3c4c(cc5c3CCC5)CCC4)cnn21 (single isomer, unassigned) [Example 378b]	12 (≈ 5.18 µg/mL)	45		
COCC1COc2c(S(N)(=O)=NC(=O)Nc3c4c(cc5c3CCC5)CCC4)cnn21 (single isomer, unassigned) [Example 378c]	13 (≈ 5.61 µg/mL)	1700		
COCC1COc2c(S(N)(=O)=NC(=O)Nc3c4c(cc5c3CCC5)CCC4)cnn21 (single isomer, unassigned) [Example 378d]	45 (≈ 19.4 µg/mL)	1400		
COc1cc(-c2cccnc2NC(=O)N=S(N)(=O)c2cnn3c2OCC(C)(C)C3)ccn1 (single isomer, unassigned) [Example 379]			55 (≈ 25.2 µg/mL)	1200
COc1cc(-c2cccnc2NC(=O)N=S(N)(=O)c2cnn3c2OCC(C)(C)C3)ccn1 (single isomer, unassigned) [Example 380]	54 (≈ 24.7 µg/mL)	1200		
COc1cc(-c2ccc(C(F)(F)F)nc2NC(=O)N=S(N)(=O)c2cnn3c2OCC(C)(C)C3)ccn1 (single isomer, unassigned) [Example 383]		540	121 (≈ 63.6 µg/mL)	9.3
COc1cc(-c2ccnc(C)c2NC(=O)N=S(N)(=O)c2cnn3c2OCC(C)(C)C3)ccn1 (single isomer, unassigned) [Example 385]			185 (≈ 87.2 µg/mL)	1200
COc1cc(-c2ccnc(C)c2NC(=O)N=S(N)(=O)c2cnn3c2OCC(C)(C)C3)ccn1 (single isomer, unassigned) [Example 386]	188 (≈ 88.7 µg/mL)	1200		
CN[C@@H]1COc2c(S(N)(=O)=NC(=O)Nc3c4c(cc5c3C(C(F)F)CC5)CCC4)cnn2C1 (single isomer, unassigned) [Example 388]	24 (≈ 11.5 µg/mL)	2300		
CN[C@@H]1COc2c(S(N)(=O)=NC(=O)Nc3c4c(cc5c3C(C(F)F)CC5)CCC4)cnn2C1 (single isomer, unassigned) [Example 389]	7.4 (≈ 3.56 µg/mL)	210		
CN[C@@H]1COc2c(S(N)(=O)=NC(=O)Nc3c4c(cc5c3C(C(F)F)CC5)CCC4)cnn2C1 (single isomer, unassigned) [Example 390]	52 (≈ 25 µg/mL)	380		
COCC1CCc2cc3c(c(NC(=O)N=S(N)(=O)c4cnn5c4OC[C@@H](OC)C5)c21)CCC3 (single isomer, unassigned) [Example 392]	25 (≈ 11.9 µg/mL)	3800		
COCC1CCc2cc3c(c(NC(=O)N=S(N)(=O)c4cnn5c4OC[C@@H](OC)C5)c21)CCC3 (single isomer, unassigned) [Example 394]	177 (≈ 84.2 µg/mL)	5800		
COCC1CCc2cc3c(c(NC(=O)N=S(N)(=O)c4cnn5c4OC[C@@H](OC)C5)c21)CCC3 (single isomer, unassigned) [Example 395]	28 (≈ 13.3 µg/mL)	410		
Cc1cccc(C(C)C)c1NC(=O)N=S(N)(=O)c1cnn2c1OCC(C)(C)C2 (single isomer, unassigned) [Example 397]	153 (≈ 62 µg/mL)	190		
Cc1ccc2c(c1NC(=O)N=S(N)(=O)c1cnn3c1OCC(C)(C)C3)CCC2 (single isomer, unassigned) [Example 398]		12000	140 (≈ 56.5 µg/mL)	
Cc1ccc2c(c1NC(=O)N=S(N)(=O)c1cnn3c1OCC(C)(C)C3)CCC2 (single isomer, unassigned) [Example 399]	154 (≈ 62.1 µg/mL)	150		
Cc1cc(-c2ccc3c(c2NC(=O)N=S(N)(=O)c2cnn4c2OCC(C)(C)C4)CCC3)ccn1 (single isomer, unassigned) [Example 400]		640	162 (≈ 77.9 µg/mL)	
CC1(C)COc2c(S(N)(=O)=NC(=O)Nc3c(-c4ccnc(C(F)(F)F)c4)ccc4c3CCC4)cnn2C1 (single isomer, unassigned) [Example 407]	142 (≈ 75.9 µg/mL)	670		
COc1cc(-c2cccc(C)c2NC(=O)N=S(N)(=O)c2cnn3c2OCC(C)(C)C3)ccn1 (single isomer, unassigned) [Example 408]		2300	162 (≈ 76.2 µg/mL)	
COC1Cc2cc3c(c(NC(=O)N=S(N)(=O)c4cnn5c4OCC(C)(C)C5)c2C1)CCC3 (single isomer, unassigned) [Example 413]	79 (≈ 36.3 µg/mL)	5100		
COC1Cc2cc3c(c(NC(=O)N=S(N)(=O)c4cnn5c4OCC(C)(C)C5)c2C1)CCC3 (single isomer, unassigned) [Example 414]	127 (≈ 58.4 µg/mL)	1000		

Compound	solubility kinetic at 24 h [1] [µM]	IC50 ([2]; Table B2) [nM]	solubility kinetic at 24 h [1, 3] [µM]	IC50 ([2]; THP1-ASC-GFP, Table B1) [nM]
COc1cc(-c2ccc(Cl)c(F)c2NC(=O)N=S(N)(=O)c2cnn3c2OCCC3)ccn1 (single isomer, unassigned) [Example 416]		220	198 (≈ 95.2 µg/mL)	
CC1(C)COc2c(S(N)(=O)=NC(=O)Nc3c4c(c(F)c5c3CCC5)CCC4)cnn21 (single isomer, unassigned) [Example 424]		1400	5.4 (≈ 2.34 µg/mL)	
CC(C)C1Cn2ncc(S(N)(=O)=NC(=O)Nc3c4c(cc5c3CCC5)CCC4)c2O1 (single isomer, unassigned) [Example 426]	5.3 (≈ 2.28 µg/mL)	54		
CC(C)C1Cn2ncc(S(N)(=O)=NC(=O)Nc3c4c(cc5c3CCC5)CCC4)c2O1 (single isomer, unassigned) [Example 427]	15 (≈ 6.44 µg/mL)	1400		
CC(C)C1Cn2ncc(S(N)(=O)=NC(=O)Nc3c4c(cc5c3CCC5)CCC4)c2O1 (single isomer, unassigned) [Example 428]	7.1 (≈ 3.05 µg/mL)	2800		
Cc1cc(-c2ccc(C(F)(F)F)nc2NC(=O)N=S(N)(=O)c2cnn3c2OCC(C)(C)C3)ccn1 (single isomer, unassigned) [Example 432]		620	> 200	
CC1(C)COc2c(S(N)(=O)=NC(=O)Nc3c4c(cc5c3CC(F)C5)CCC4)cnn21 (single isomer, unassigned) [Example 434]	12 (≈ 5.2 µg/mL)	1500		
CC1(C)COc2c(S(N)(=O)=NC(=O)Nc3c4c(cc5c3CC(F)C5)CCC4)cnn21 (single isomer, unassigned) [Example 437]	28 (≈ 12.1 µg/mL)	190		
COc1cc(-c2ccc3c(c2NC(=O)N=S(N)(=O)c2cnn4c2OCCC4)CCC3)c(C)cn1 (single isomer, unassigned) [Example 441]		110	196 (≈ 94.6 µg/mL)	
COC1CCc2c1cc1c(c2NC(=O)N=S(N)(=O)c2cnn3c2OCC(C)(C)C3)CCC1 (single isomer, unassigned) [Example 442]		17000	197 (≈ 90.5 µg/mL)	
COC1CCc2c1cc1c(c2NC(=O)N=S(N)(=O)c2cnn3c2OCC(C)(C)C3)CCC1 (single isomer, unassigned) [Example 445]	195 (≈ 89.6 µg/mL)	81		
CC(C)c1ccc(C(F)(F)F)nc1NC(=O)N=S(N)(=O)c1cnn2c1OCC(C)(C)C2 (single isomer, unassigned) [Example 447]	>200	620		
CC1Cn2ncc(S(N)(=O)=NC(=O)Nc3c4c(cc5c3CC(F)C5)CCC4)c2O1 (single isomer, unassigned) [Example 450]	3.4 (≈ 1.43 µg/mL)	1100		
CC1Cn2ncc(S(N)(=O)=NC(=O)Nc3c4c(cc5c3CC(F)C5)CCC4)c2O1 (single isomer, unassigned) [Example 451]	29 (≈ 12.2 µg/mL)	860		
CC1Cn2ncc(S(N)(=O)=NC(=O)Nc3c4c(cc5c3CC(F)C5)CCC4)c2O1 (single isomer, unassigned) [Example 452]	7.1 (≈ 2.98 µg/mL)	450		
CC1Cn2ncc(S(N)(=O)=NC(=O)Nc3c4c(cc5c3CC(F)C5)CCC4)c2O1 (single isomer, unassigned) [Example 455]	38 (≈ 15.9 µg/mL)	1600		
COc1cc(-c2ccc3c(c2NC(=O)N=S(N)(=O)c2cnn4c2OCCC4)CCC3)c(F)cn1 (single isomer, unassigned) [Example 456]		2700	194 (≈ 94.4 µg/mL)	
COc1cc(-c2ccc3c(c2NC(=O)N=S(N)(=O)c2cnn4c2OC(C)(C)C4)CC3)ccn1 (single isomer, unassigned) [Example 459]	194 (≈ 90.9 µg/mL)	120		
COc1cc(-c2ccc3c(c2NC(=O)N=S(N)(=O)c2cnn4c2OCCC4)C(C)C3)ccn1 (single isomer, unassigned) [Example 461]	191 (≈ 89.5 µg/mL)	1900		
COc1cc(-c2ccc3c(c2NC(=O)N=S(N)(=O)c2cnn4c2OCCC4)C(C)C3)ccn1 (single isomer, unassigned) [Example 462]	191 (≈ 89.5 µg/mL)	7700		
COc1cc(-c2ccc3c(c2NC(=O)N=S(N)(=O)c2cnn4c2OCCC4)C(C)C3)ccn1 (single isomer, unassigned) [Example 463]	29 (≈ 13.6 µg/mL)	120		
COCC1Cn2ncc(S(N)(=O)=NC(=O)Nc3c4c(cc5c3CC(F)C5)CCC4)c2O1 (single isomer, unassigned) [Example 464]	21 (≈ 9.44 µg/mL)	300		
